The text below walks through data of paper PMC4391719 (PLoS ONE, 2015).

One data set deals with CD1 nu/nu mice. As to the kind of experiment: Biodistribution of ^111In-labelled fragments in CD1 nu/nu mice without tumours. The data set is classed as in vivo, mouse. The following applies: ^111In-labelled fragment ~100 kBq i.v. tail vein, mice without tumours, after 4 h. How it is done: (§1) Biodistribution of ^111In-PSI-CLNOD1, ^111In-PSI-CLNOD2, ^111In-PSI-CLNOD3 and ^111In-Ex4NOD40 were performed in CD 1 nu/nu mice with tumour xenografts that were prepared as previously described. Six week-old female CD1 nu/nu mice were subcutaneously inoculated in both shoulder regions with 8 x 10^6 CHL-GLP-1R positive cells suspended in PBS pH 7.4. After 4 weeks, the mice were randomly divided into groups of four mice. For the ^111In-labelled fragments mice without tumours were used. The mice were injected with approximately 100 kBq (1–5 pmol) of the respective ^111In-labelled peptide diluted in PBS pH 7.4 with 0.1% BSA via the tail vein and sacrificed after 4 h by CO2 asphyxiation. […] Blood, heart, lungs, spleen, kidneys, pancreas, stomach, intestine, liver, muscle, bone and tumour were removed, weighted and activity determined in a γ-counter (Packard Cobra II Auto Gamma, Perkin Elmer, Switzerland). The percentage of injected activity per gram tissue (%iA/g) was calculated for each sample. The statistical significance was determined using the two-way ANOVA test and corrected for multiple comparisons using Tukey’s honest significance test. The data was log-transformed to account for the variance in the groups.

Experiment in data set [1]: as above
The format is in vivo, mouse. The following applies: CD1 nu/nu, mouse, iv, 100 kBq, total radioactivity. How it is done:
as §1

The next data set concerns meprin α. As to the kind of experiment: recombinant meprin α in meprin assay buffer (50 mM Tris-HCl pH 7.5 + 1 mM MgCl2 + 1 mM CaCl2) and 1 M Tris pH 7.5. The following applies: 37°C, up to 60 min.
The subject of another data set is meprin β. As to the kind of experiment: recombinant meprin β in meprin assay buffer (50 mM Tris-HCl pH 7.5 + 1 mM MgCl2 + 1 mM CaCl2) and 1 M Tris pH 7.5. The settings on record: 37°C, up to 60 min.
The mark [2] stands for this setting: blood, ^111In-labelled fragment ~100 kBq i.v. tail vein, mice without tumours, after 4 h, read-out: Biodistribution of fragment, Blood.
The mark [3] stands for this setting: intestines, ^111In-labelled fragment ~100 kBq i.v. tail vein, mice without tumours, after 4 h, read-out: Biodistribution of fragment, Intestines.
[4] abbreviates: kidneys, ^111In-labelled fragment ~100 kBq i.v. tail vein, mice without tumours, after 4 h, read-out: Biodistribution of fragment, Kidneys.
Setting [5] is: kidneys, ^111In-labelled fragments, mice without tumours, 4 h after injection, summary in text of S3 Table, read-out: activity retained in the kidneys at the end of the experiment.
[6] abbreviates: liver, ^111In-labelled fragment ~100 kBq i.v. tail vein, mice without tumours, after 4 h, read-out: Biodistribution of fragment, Liver.
Where [7] appears, read: lungs, ^111In-labelled fragment ~100 kBq i.v. tail vein, mice without tumours, after 4 h, read-out: Biodistribution of fragment, Lungs.
Where [8] appears, read: spleen, ^111In-labelled fragment ~100 kBq i.v. tail vein, mice without tumours, after 4 h, read-out: Biodistribution of fragment, Spleen.
[9] abbreviates: stomach, ^111In-labelled fragment ~100 kBq i.v. tail vein, mice without tumours, after 4 h, read-out: Biodistribution of fragment, Stomach.
Where [10] appears, read: in vivo, Biodistribution of fragment, Blood.
The mark [11] stands for this setting: in vivo, Biodistribution of fragment, Bone.
Where [12] appears, read: in vivo, Biodistribution of fragment, Heart.
Setting [13] is: in vivo, Biodistribution of fragment, Intestines.
Setting [14] is: in vivo, Biodistribution of fragment, Kidneys.
The mark [15] stands for this setting: in vivo, Biodistribution of fragment, Liver.
Setting [16] is: in vivo, Biodistribution of fragment, Lungs.
[17] abbreviates: in vivo, Biodistribution of fragment, Muscle.
[18] abbreviates: in vivo, Biodistribution of fragment, Pancreas.
The mark [19] stands for this setting: in vivo, Biodistribution of fragment, Spleen.
Setting [20] is: in vivo, Biodistribution of fragment, Stomach.
The mark [21] stands for this setting: in vivo, activity retained in the kidneys at the end of the experiment.

Like-named read-outs stand apart in the source and are kept apart here. Where a SMILES comes first, the peptide text is derived from it. The star is where a group is joined. NODAGA = O=C(O)CN1CCN(CC(=O)O)CCN(C(CCC(=O)*)C(=O)O)CC1 A value given as a limit tells only on which side of the number the result lay.

On to `NC(=O)[C@H](CCCCNC(=O)CCC(C(=O)O)N1CCN(CC(=O)O)CCN(CC(=O)O)CC1)NC(=O)[C@H](CO)NC(=O)[C@@H]1CCCN1C(=O)[C@@H]1CCCN1C(=O)[C@@H]1CCCN1C(=O)[C@H](CCC(=O)O)NC(=O)[C@@H](N)CC(=O)O` (stereo partly drawn) [CL3-F1] (H-DEPPPSK(NODAGA)-NH2), for which, in the data set with CD1 nu/nu mice, the “Biodistribution of fragment, Heart” value is listed as 0.00 %iA/g. The “Biodistribution of fragment, Muscle” value in the data set with CD1 nu/nu mice is -0.01 %iA/g. Moreover, the “Biodistribution of fragment, Pancreas” value with CD1 nu/nu mice stood at 0.00 %iA/g. For the same molecule, the tissue uptake at 4 h is 0.01 %ID/g in data set [1] (setting [2]); 0.04 %ID/g in data set [1] (setting [3]); 1.71 %ID/g in data set [1] (setting [4]); less than 4 %ID/g in data set [1] (setting [5]); 0.04 %ID/g in data set [1] (setting [6]); 0.02 %ID/g in data set [1] (setting [7]). Also, the tissue uptake at 4 h in data set [1] (setting [8]) and in data set [1] (setting [9]) was 0.01 %ID/g throughout.
Regarding `NC(=O)[C@H](CCCCNC(=O)CCC(C(=O)O)N1CCN(CC(=O)O)CCN(CC(=O)O)CC1)NC(=O)[C@H](Cc1ccccc1)NC(=O)[C@@H](N)CC(=O)O` (stereo partly drawn) [CL2-F2], the tissue uptake at 4 h was 0.01 %ID/g in data set [1] (setting [10]); 0.01 %ID/g in data set [1] (setting [11]); 0.01 %ID/g in data set [1] (setting [12]); 0.14 %ID/g in data set [1] (setting [13]); 2.11 %ID/g in data set [1] (setting [14]); 0.11 %ID/g in data set [1] (setting [15]). Also, the tissue uptake at 4 h in data set [1] (setting [16]) is 0.03 %ID/g; in data set [1] (setting [17]), 0.01 %ID/g; in data set [1] (setting [18]) it was 0.02 %ID/g; in data set [1] (setting [19]) it was 0.04 %ID/g; in data set [1] (setting [20]), 0.03 %ID/g; in data set [1] (setting [21]), less than 4 %ID/g.
As for “HGEGTFTSDLSKQNleEEEAVRLFIEWLKNGGPSSGDYMGWMDFK(NODAGA)-NH2”, in the data set with meprin α, the cleaved bond entry is “M-D and G-G”; the fragment found result is “IEWL-DFK(natIn-NODAGA)-NH2”. Further, the cleaved bond entry with meprin β is “G-D and M-D”.
As to `NC(=O)[C@H](CCCCNC(=O)CCC(C(=O)O)N1CCN(CC(=O)O)CCN(CC(=O)O)CC1)NC(=O)[C@H](CO)NC(=O)[C@@H]1CCCN1C(=O)[C@@H]1CCCN1C(=O)[C@@H]1CCCN1C(=O)[C@@H](N)CCC(=O)O` (stereo partly drawn) [CL3-F2] (H-EPPPSK(NODAGA)-NH2), the tissue uptake at 4 h in data set [1] (setting [10]) stood at 0.02 %ID/g; in data set [1] (setting [11]), 0.21 %ID/g; in data set [1] (setting [12]), 0.01 %ID/g; in data set [1] (setting [13]), 0.1 %ID/g; in data set [1] (setting [14]) it was 2.22 %ID/g; in data set [1] (setting [15]), 0.07 %ID/g. Further, the tissue uptake at 4 h in data set [1] (setting [16]) is 0.04 %ID/g; in data set [1] (setting [17]), 0.02 %ID/g; in data set [1] (setting [18]), 0.01 %ID/g; in data set [1] (setting [19]), 0.03 %ID/g; in data set [1] (setting [20]) it was 0.02 %ID/g; in data set [1] (setting [21]), less than 4 %ID/g.
For `CC(C)[C@H](NC(=O)[C@H](C)NC(=O)[C@@H](N)CCC(=O)O)C(=O)N[C@@H](CCCCNC(=O)CCC(C(=O)O)N1CCN(CC(=O)O)CCN(CC(=O)O)CC1)C(N)=O` (stereo partly drawn) [CL1-F2] (H-EAVK(NODAGA)-NH2), the tissue uptake at 4 h in data set [1] (setting [10]) stood at 0.01 %ID/g; in data set [1] (setting [11]), 0.06 %ID/g; in data set [1] (setting [12]), 0.02 %ID/g; in data set [1] (setting [13]) it was 0.1 %ID/g; in data set [1] (setting [14]), 2.97 %ID/g; in data set [1] (setting [15]), 0.08 %ID/g. In addition, the tissue uptake at 4 h in data set [1] (setting [16]) was 0.04 %ID/g; in data set [1] (setting [18]), 0.01 %ID/g; in data set [1] (setting [19]), 0.03 %ID/g; in data set [1] (setting [20]), 0.02 %ID/g; in data set [1] (setting [21]) it was less than 4 %ID/g.
“HGEGTFTSDLSKQNleEEEAVRLFIEWLKNGGPSSGQNleEEEAVK(NODAGA)-NH2”: in the data set with meprin α, the fragment found result was “IEW-AVK(natIn-NODAGA)-NH2”. In the data set with meprin β, the cleaved bond entry is “Nle-E and E-E and V-K(^natIn-NODAGA)”.
As to `NC(=O)[C@@H](N)CCCCNC(=O)CCC(C(=O)O)N1CCN(CC(=O)O)CCN(CC(=O)O)CC1` (stereo partly drawn) [CL1-F3], the tissue uptake at 4 h in data set [1] (setting [11]) came out at 0.07 %ID/g; in data set [1] (setting [12]) it was 0.01 %ID/g; in data set [1] (setting [13]), 0.09 %ID/g; in data set [1] (setting [14]), 1.72 %ID/g; in data set [1] (setting [15]), 0.08 %ID/g; in data set [1] (setting [16]), 0.03 %ID/g. The tissue uptake at 4 h in data set [1] (setting [18]) was 0.01 %ID/g; in data set [1] (setting [19]) it was 0.03 %ID/g; in data set [1] (setting [20]) it was 0.02 %ID/g; in data set [1] (setting [21]) it was less than 4 %ID/g.
For the molecule `CC(C)[C@H](NC(=O)[C@H](C)NC(=O)[C@H](CCC(=O)O)NC(=O)[C@@H](N)CCC(=O)O)C(=O)N[C@@H](CCCCNC(=O)CCC(C(=O)O)N1CCN(CC(=O)O)CCN(CC(=O)O)CC1)C(N)=O` (stereo partly drawn) [CL1-F1] (H-EEAVK(NODAGA)-NH2), the tissue uptake at 4 h in data set [1] (setting [10]) came to 0.01 %ID/g; in data set [1] (setting [11]), 0.05 %ID/g; in data set [1] (setting [12]), 0.01 %ID/g; in data set [1] (setting [13]), 0.22 %ID/g; in data set [1] (setting [14]), 2.28 %ID/g; in data set [1] (setting [15]), 0.07 %ID/g. The tissue uptake at 4 h was 0.03 %ID/g in data set [1] (setting [16]); 0.01 %ID/g in data set [1] (setting [18]); 0.03 %ID/g in data set [1] (setting [19]); 0.02 %ID/g in data set [1] (setting [20]); less than 4 %ID/g in data set [1] (setting [21]).
In the case of “HGEGTFTSDLSKQNleEEEAVRLFIEWLKNGGPSEDEPPPSK(NODAGA)-NH2”, in the data set on meprin α, the cleaved bond result is given as “D-E” and the fragment found entry was “IEW –K(natIn-NODAGA)”. For the same molecule, in the data set on meprin β, the cleaved bond result was “E-D and D-E”.
Regarding `CSCC[C@H](NC(=O)[C@H](Cc1ccc(O)cc1)NC(=O)[C@@H](N)CC(=O)O)C(=O)NCC(=O)N[C@@H](Cc1c[nH]c2ccccc12)C(=O)N[C@@H](CCSC)C(=O)N[C@@H](CC(=O)O)C(=O)N[C@@H](Cc1ccccc1)C(=O)N[C@@H](CCCCNC(=O)CCC(C(=O)O)N1CCN(CC(=O)O)CCN(CC(=O)O)CC1)C(N)=O` (stereo partly drawn) [CL2-F1], in the data set with CD1 nu/nu mice, the “Biodistribution of fragment, Muscle” value is given as 0.00 %iA/g. Further, the tissue uptake at 4 h in data set [1] (setting [2]) was 0.02 %ID/g; in data set [1] (bone, ^111In-labelled fragment ~100 kBq i.v. tail vein, mice without tumours, after 4 h, read-out: Biodistribution of fragment, Bone), 0.06 %ID/g; in data set [1] (heart, ^111In-labelled fragment ~100 kBq i.v. tail vein, mice without tumours, after 4 h, read-out: Biodistribution of fragment, Heart), 0.02 %ID/g; in data set [1] (setting [3]), 0.15 %ID/g; in data set [1] (setting [4]), 2.5 %ID/g; in data set [1] (setting [5]) it was less than 4 %ID/g. Further, the tissue uptake at 4 h in data set [1] (setting [6]) was 0.17 %ID/g; in data set [1] (setting [7]) it was 0.04 %ID/g; in data set [1] (pancreas, ^111In-labelled fragment ~100 kBq i.v. tail vein, mice without tumours, after 4 h, read-out: Biodistribution of fragment, Pancreas), 0.02 %ID/g; in data set [1] (setting [8]), 0.07 %ID/g; in data set [1] (setting [9]), 0.04 %ID/g.
